Consider 17 molecules from article PMC10119423, “From PERK to RIPK1: Design, synthesis and evaluation of novel potent and selective necroptosis inhibitors” (Frontiers in Chemistry, 2023).

The subject of one assay is immortalized MEFs. Kind of assay: RIPK1 kinase-dependent necroptosis (hTNF + zVAD.fmk) in MEFs, Sytox Green.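 As to all read-outs here: cell death taken as background-corrected Sytox Green fluorescence relative to the maximal signal of cells fully permeabilized with 0.1% Triton X-100.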 The class given is cell-based, mouse. To be noted: for IC50: Mus musculus; for necroptosis inhibition (in words): mouse cells (MEFs), RIPK1-dependent necroptosis.
The target of a further assay is T1, PERK (Mus musculus, UniProt Q9Z2B5).
T1 construct: Immortalized MEFs were pretreated for 30 min with increasing concentrations of GSK’157 and the indicated compounds and stimulated with tunicamycin; endogenous in cells; host or cells: immortalized mouse embryonic fibroblasts (MEFs, C57Bl6/J)
T1 sequence (Q9Z2B5 29-1114): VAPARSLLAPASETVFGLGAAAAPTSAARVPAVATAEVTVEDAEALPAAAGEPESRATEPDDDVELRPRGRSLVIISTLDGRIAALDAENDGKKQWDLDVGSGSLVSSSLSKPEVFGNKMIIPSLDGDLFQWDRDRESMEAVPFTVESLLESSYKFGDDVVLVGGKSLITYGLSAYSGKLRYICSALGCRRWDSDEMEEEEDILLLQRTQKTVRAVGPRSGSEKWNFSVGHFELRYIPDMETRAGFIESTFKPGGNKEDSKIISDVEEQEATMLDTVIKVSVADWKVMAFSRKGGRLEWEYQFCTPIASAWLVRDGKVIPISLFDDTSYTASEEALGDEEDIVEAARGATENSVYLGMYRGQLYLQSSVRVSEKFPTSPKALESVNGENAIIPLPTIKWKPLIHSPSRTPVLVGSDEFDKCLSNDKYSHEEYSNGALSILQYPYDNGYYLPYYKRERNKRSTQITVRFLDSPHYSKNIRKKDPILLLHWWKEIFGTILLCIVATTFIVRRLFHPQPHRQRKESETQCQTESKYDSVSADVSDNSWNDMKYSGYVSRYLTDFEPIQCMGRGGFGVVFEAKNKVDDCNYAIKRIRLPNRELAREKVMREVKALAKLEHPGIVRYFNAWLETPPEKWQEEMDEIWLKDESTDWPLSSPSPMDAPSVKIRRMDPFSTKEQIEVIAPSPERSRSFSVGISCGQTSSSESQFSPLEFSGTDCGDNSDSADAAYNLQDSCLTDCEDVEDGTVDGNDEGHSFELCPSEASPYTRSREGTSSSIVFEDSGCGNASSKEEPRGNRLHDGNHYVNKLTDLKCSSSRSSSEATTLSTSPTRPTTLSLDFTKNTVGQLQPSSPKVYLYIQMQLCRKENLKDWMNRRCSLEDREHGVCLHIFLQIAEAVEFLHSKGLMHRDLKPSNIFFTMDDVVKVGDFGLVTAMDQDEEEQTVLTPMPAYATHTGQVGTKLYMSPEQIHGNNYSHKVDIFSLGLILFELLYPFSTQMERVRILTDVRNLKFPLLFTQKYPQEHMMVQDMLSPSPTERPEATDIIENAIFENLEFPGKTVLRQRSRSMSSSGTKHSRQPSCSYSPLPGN
Kind of assay: PERK autophosphorylation by Western blot in tunicamycin-stimulated immortalized MEFs. It counts as cell-based. Particulars: immortalized MEFs, 30 min pretreatment, tunicamycin 1 μg/ml for 4 h; PERK autophosphorylation; read-out: PERK inhibition (IC50 estimated from a Western blot). How it is done:
(§1) MEFs were seeded in 6-well plates at a density of 300.000 cells/well in 2 mL. The next day, the cells were suspended in 1 mL of medium and pre-treated for 30 min with the indicated compounds at 1/5 dilutions series for PERK ranging from 5 to 0.04 µM and 1 μg/mL of Tm followed by 4 h treatment with 20 ng/mL of hTNF. For RIPK1, the cells were pre-treated at 1/10 dilutions series ranging from 10 to 0.01 nM, 50 µM zVAD.fmk and 1 µM TAKi before stimulation with 20 ng/mL of hTNF for 2.5 h. Then, the cells were washed two times with 1 mL of ice-cold PBS before lysis in 0.2 mL of Laemmli buffer 1x (10% (w/v) SDS, 50% glycerol, 0.5% bromophenol blue, 250 mM Tris–HCl pH 6.8) and 250 mM of dithiothreitol (DTT). The cell lysate was then collected and boiled at 95 °C for 10min and stored at −20°C. Proteins expression was later monitored by immunoblotting.
Their activities were evaluated by comparing the intensity of the signal to unstimulated MEFs (considered as zero phosphorylation) and Tunicamycin stimulated cells (considered as 100% PERK phosphorylation). […] The MEFs were pre-incubated for 30 min with the different compounds (0.01 nM–1000 nM) and then stimulated with human TNF (20 ng/mL) for 2.5 h. Similar to the PERK assessment, IC50 values for RIPK1 inhibition were estimated as a range of concentrations, and are reported in Table 1.

A further assay concerns the target T2, RIPK1 (Mus musculus, UniProt Q60855).
T2 construct: endogenous in cells; host or cells: immortalized mouse embryonic fibroblasts (MEFs, C57Bl6/J)
T2 sequence (Q60855 1-656): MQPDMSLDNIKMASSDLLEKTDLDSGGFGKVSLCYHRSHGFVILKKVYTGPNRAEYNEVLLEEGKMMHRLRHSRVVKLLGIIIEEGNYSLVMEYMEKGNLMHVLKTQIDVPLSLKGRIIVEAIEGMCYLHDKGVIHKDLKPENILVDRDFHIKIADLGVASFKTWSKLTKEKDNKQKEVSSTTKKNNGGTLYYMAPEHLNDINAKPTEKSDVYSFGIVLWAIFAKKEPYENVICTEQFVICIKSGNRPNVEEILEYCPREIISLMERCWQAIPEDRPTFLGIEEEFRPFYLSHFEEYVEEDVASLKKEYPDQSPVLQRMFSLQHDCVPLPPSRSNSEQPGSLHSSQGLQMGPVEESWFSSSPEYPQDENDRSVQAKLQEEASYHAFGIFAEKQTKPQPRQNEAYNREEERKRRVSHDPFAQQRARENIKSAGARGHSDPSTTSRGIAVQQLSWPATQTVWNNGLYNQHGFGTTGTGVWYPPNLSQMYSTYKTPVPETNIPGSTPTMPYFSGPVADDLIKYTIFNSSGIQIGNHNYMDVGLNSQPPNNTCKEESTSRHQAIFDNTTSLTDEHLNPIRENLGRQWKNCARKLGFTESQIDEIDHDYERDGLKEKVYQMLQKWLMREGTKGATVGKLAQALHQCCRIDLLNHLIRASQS
Kind of assay: RIPK1 autophosphorylation (pS166) by Western blot in MEFs stimulated with hTNF + TAK1i + zVAD.fmk. The class given is cell-based. Particulars: immortalised MEFs, 30 min pretreatment with zVAD.fmk 50 μM, TAK1i 1 μM and compound, hTNF 20 ng/ml for 2.5 h, read-out: RIPK1 inhibition (IC50 estimated from a Western blot). How it is done:
as §1
Activation of PERK was induced by stimulation of the cells with Tunicamycin, as previsouly reported ([Bull and Thiede, 2012]). More precisely, the immortalised MEFs were pre-incubated for 30 min with the analogues 18–34 at different concentrations (0.04, 0.2, 1, and 5 µM) prior to 4 h stimulation with Tunicamycin (1 μg/mL). […] Their activities were evaluated by comparing the intensity of the signal to unstimulated MEFs (considered as zero phosphorylation) and Tunicamycin stimulated cells (considered as 100% PERK phosphorylation). The 12 compounds (18–20, 22–29 and 34) that had lost their inhibitory capacity on PERK were then tested for their ability to inhibit RIPK1 as shown in Figures 6A–H. Activation and autophosphorylation of RIPK1 was induced by stimulating the cells with TNF in the presence of TAK1 inhibitor and of the pan-caspases inhibitor zVAD.fmk, a well established necroptotic trigger ([Vanlangenakker et al., 2011]). The MEFs were pre-incubated for 30 min with the different compounds (0.01 nM–1000 nM) and then stimulated with human TNF (20 ng/mL) for 2.5 h. Similar to the PERK assessment, IC50 values for RIPK1 inhibition were estimated as a range of concentrations, and are reported in Table 1. These experiments provide an estimation of the specificity of our analogues against PERK and RIPK1 in comparison to the benchmark GSK’157 already reported as a potent PERK and RIPK1 inhibitor.

The subject of a further assay is HT-29. Kind of assay: Necroptosis (hTNF + TAK1i + zVAD.fmk) in HT-29 cells, Sytox Green. Particulars: Homo sapiens, HT-29, read-out: Necroptosis hTNF + TAK1i + zVAD.fmk HT-29 IC50.
A further assay deals with MEFs. Nature of the assay: RIPK1 kinase-dependent apoptosis (hTNF + TAK1i) in MEFs, Sytox Green. The class given is cell-based. Particulars: Mus musculus, TAK1i + hTNF (100 pg/mL). An excerpt: In MEFs, TNF together with the pan caspases inhibitor zVAD.fmk induces RIPK1-dependent necroptosis while TNF together with TAK1 inhibitor induces RIPK1 kinase-dependent apoptosis. We also included the conditions selected for the Western blot experiments, where necroptosis was induced by the combination of hTNF, zVAD.fmk and TAK1 inhibitor.

The mark [1] stands for this setting: 24 h, immortalized MEFs, zVAD-fmk 50 μM + hTNF 20 ng/ml, Sytox Green at 24 h, Table 1 series, read-out: IC50 necroptosis.
Where [2] appears, read: MEFs, hTNF + zVAD.fmk, read-out: IC50 necroptosis inhibition.

Read-outs that look alike come from different tables or passages of the source. Some results are limits rather than exact numbers.

Method for HT-29: In brief, the cells were seeded in duplicate at 10,000 cells per well in a 96-well adherent plate and incubated overnight at 37°C with 5% CO2. […] All the compound stock solutions were prepared in DMSO at 200 µM concentration. After stimulating the cells with human TNF at 20 ng/mL the plate was transferred to the incubator. Sytox Green intensity was measured in function of time at 0, 14 and 24 h with an excitation filter of 485 nm, an emission filter of 520 nm. The cell death was calculated by subtracting the background fluorescence from the induced Sytox Green fluorescence and by dividing the obtained result by the maximal fluorescence (minus the background fluorescence) obtained by permeabilization of the cells by using Triton X-100 at a final concentration of 0.1%. Curves were plotted in GraphPad 9 for the IC50 calculation.
To induce necroptosis in human colorectal adenocarcinoma cell line (HT-29) together with hTNF and the pan caspases inhibitor zVAD.fmk, TAK1 inhibitor is also needed.

As to `Cn1cc(-c2ccc3c(c2F)CCN3C(=O)Cc2ccc(F)cn2)c2c(N)ncnc21` [Compound 18], the IC50 – broadly, the concentration that gives 50% inhibition – in the assay on immortalized MEFs (setting [1]) is 13.5 nM; on PERK, over 5000 nM; at RIPK1, at least 10 nM.

As for `Cn1cc(-c2ccc3c(c2F)CCN3C(=O)Cc2ccc(O)cn2)c2c(N)ncnc21` [Compound 26], the IC50 with immortalized MEFs (setting [1]) is 2530 nM; with immortalized MEFs (setting [2]) it was over 2000 nM; at PERK, at least 5000 nM; on RIPK1, at least 10 nM.

Regarding `Cn1cc(-c2ccc3c(c2F)CCN3C(=O)Cc2ccc(C(C)(C)C)cn2)c2c(N)ncnc21` [Compound 25], the IC50 in the assay on immortalized MEFs (setting [1]) is 40 nM; on PERK, over 5000 nM; at RIPK1, at least 10 nM.

`Cn1cc(-c2ccc3c(c2F)CCN3C(=O)Cc2ccc(Br)cn2)c2c(N)ncnc21` [Compound 20]: the IC50 is 3.2 nM in the assay on immortalized MEFs (setting [1]), over 5000 nM on PERK and 1 to 10 nM at RIPK1.

As for `Cn1cc(-c2ccc3c(c2F)CCN3C(=O)Cc2ccc(Br)cc2)c2c(N)ncnc21` [Compound 32], the figures for the IC50 in the assay with immortalized MEFs (setting [1]), at PERK and at RIPK1 were 0.3 nM, 1000 to 5000 nM and 1 to 10 nM, respectively.

As for `Cc1ccc(CC(=O)N2CCc3c2ccc(-c2cn(C)c4ncnc(N)c24)c3F)cc1` [Compound 33], the IC50 is over 10000 nM in the assay with immortalized MEFs (setting [1]), 1000 to 5000 nM at PERK and at least 10 nM at RIPK1. In addition, in the assay with immortalized MEFs, the “necroptosis inhibition (in words)” value is “complete loss of necroptosis inhibition”.

For `Cn1cc(-c2ccc3c(c2F)CCN3C(=O)Cc2ccc(Cl)cn2)c2c(N)ncnc21` [Compound 19], the IC50 is 2.5 nM in the assay with immortalized MEFs (setting [1]), over 5000 nM at PERK and 1 to 10 nM at RIPK1.

As for `CN1C(=O)[C@@H](NC(=O)c2n[nH]c(Cc3ccccc3)n2)COc2ccccc21` [GSK’772, reference compound], the IC50 in the assay with immortalized MEFs (24 h, MEFs, hTNF + zVAD.fmk (20 ng/mL), Table 2, read-out: Necroptosis hTNF + zVAD.fmk MEFs IC50) is over 100 nM; with HT-29, 0.2 nM; in the assay with MEFs, over 100 nM. In addition, the “necroptosis inhibition (in words)” value in the assay on immortalized MEFs is listed as “no activity”.

Regarding `COc1ccc(CC(=O)N2CCc3c2ccc(-c2cn(C)c4ncnc(N)c24)c3F)nc1` [Compound 23], the IC50 with immortalized MEFs (setting [1]) was 39 nM; at PERK it was at least 5000 nM; on RIPK1, at least 10 nM.

Take `Cn1cc(-c2ccc3c(c2F)CCN3C(=O)Cc2ccc(Cc3ccccc3)cn2)c2c(N)ncnc21` [Compound 28]: the results for the concentration for half-maximal inhibition (IC50) with immortalized MEFs (setting [1]), on PERK and at RIPK1 were 62 nM, at least 5000 nM and at least 10 nM, respectively.

Regarding `Cn1cc(-c2ccc3c(c2F)CCN3C(=O)Cc2ccc(C3CC3)cn2)c2c(N)ncnc21` [Compound 24], the IC50 in the assay with immortalized MEFs (setting [1]) is 33.5 nM; at PERK it was over 5000 nM; at RIPK1, at least 10 nM.

With `Cn1cc(-c2ccc3c(c2F)CCN3C(=O)Cc2ccc(C(F)(F)F)cc2)c2c(N)ncnc21` [Compound 34], the results for the IC50 in the assay with immortalized MEFs (setting [1]), at PERK and on RIPK1 were 1.1 nM, at least 5000 nM and 1 to 10 nM, respectively.

As for `Cn1cc(-c2ccc3c(c2F)CCN3C(=O)Cc2ccc(-c3ccccc3)cn2)c2c(N)ncnc21` [Compound 29], the IC50 with immortalized MEFs (setting [1]) was over 10000 nM; at PERK, over 5000 nM; at RIPK1, at least 10 nM.

For `Cn1cc(-c2ccc3c(c2F)CCN3C(=O)Cc2ccncc2)c2c(N)ncnc21` [Compound 27], the IC50 with immortalized MEFs (setting [1]) was 3020 nM; in the assay with immortalized MEFs (setting [2]) it was over 2000 nM; on PERK, over 5000 nM; on RIPK1, at least 10 nM.

With `Cc1ccc(CC(=O)N2CCc3c2ccc(-c2cn(C)c4ncnc(N)c24)c3F)nc1` [Compound 21], the IC50 in the assay on immortalized MEFs (setting [1]) was 37 nM; at PERK it was 1000 to 5000 nM; at RIPK1, at least 10 nM.

As for `Cn1cc(-c2ccc3c(c2F)CCN3C(=O)Cc2ccc(F)cc2)c2c(N)ncnc21` [Compound 30], the “fold higher potency than GSK’157 (necroptosis IC50)” value in the assay on immortalized MEFs (MEFs, hTNF + zVAD.fmk) is 40 fold. The IC50 in the assay on immortalized MEFs (setting [1]) was 0.01 nM; on PERK, 1000 to 5000 nM; on RIPK1, 0.1 to 1 nM.

As to `Cn1cc(-c2ccc3c(c2F)CCN3C(=O)Cc2ccc(Cl)cc2)c2c(N)ncnc21` [Compound 31], the IC50 was 0.4 nM in the assay on immortalized MEFs (setting [1]), 1000 to 5000 nM at PERK and 0.1 to 1 nM at RIPK1.
